Measurements: the METLIN SMRT retention time set (Domingo-Almenara et al. 2019)

Assay: gradient 5% acetonitrile 3 min, to 50% in 2 min, to 85% in 15 min, held 3 min, 100 µL/min
Details: column: Zorbax Extend-C18 2.1 x 50 mm; eluents: water / acetonitrile, 0.1% formic acid
Procedure, shortened: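 Retention time was recorded from adduct peaks, which were picked computationally and each inspected manually. Pure standards ran in mixtures of ~100 molecules on HPLC coupled to a quadrupole time-of-flight mass spectrometer, in positive and negative ionization mode, through a Zorbax Extend-C18 column (2.1 × 50 mm, 1.8 μm) at 100 μL/min. Eluents were water and acetonitrile, each with 0.1% formic acid.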

| RP-LC retention time | Compound |
| --- | --- |
| 808 s | C[C@@H]1CCO[C@H]2Cn3cc(C(=O)NCc4ccc(F)cc4F)c(=O)c(O)c3C(=O)N12 |
| 1000 s | CCCn1ccc2sc(C)c(C(=O)NCCC3=CCCCC3)c2c1=O |
| 655 s | CCN(CC)C(=O)[C@]1(c2ccccc2)C[C@@H]1CN |
| 761 s | CCN(CC)C(=O)c1ccc2c(c1)N(CC(=O)NC1CCCCC1)C(=O)CS2 |
| 880 s | Cc1ccc(S(=O)(=O)N2CCc3nn(CC(C)C)c(=O)n3CC2)cc1Cl |
| 605 s | Cc1cccc(CN2CC(n3cc(COc4ccc(F)cc4)nn3)C2)c1 |
| 713 s | CC(C)(C)CC(=O)NCCc1noc(C2CC2)n1 |
| 553 s | O=C(Nc1ccccc1F)N1CCN(c2cc(-c3ccncc3)[nH]n2)CC1 |
| 716 s | COc1ccc(OC)c2sc(NC(=O)c3cccc(N4C(=O)CCC4=O)c3)nc12 |
| 692 s | COc1ccc(S(=O)(=O)N2CCC(CN3CCC(C)CC3)CC2)cc1Cl |
| 830 s | Cc1ccc(NC(=O)C2CCN(S(=O)(=O)c3cc(C(=O)N4CCCC4)cs3)CC2)cc1 |
| 1110 s | COc1ccc(-c2csc(C)n2)cc1S(=O)(=O)N1CCN(c2ccccc2F)CC1 |
| 944 s | Cc1cc(C)n(Cc2nc(-c3ccc(NC(=O)CCc4ccccc4)cc3)oc2C)n1 |
| 968 s | CCOC(=O)c1sc2ccccc2c1S(=O)(=O)Nc1ccc2c(c1)OCO2 |
| 760 s | COc1ccc2[nH]c(I)c(CCNC(C)=O)c2c1 |
| 958 s | O=C(CCC1CCN(S(=O)(=O)c2ccccc2)CC1)NC1CCCCCC1 |
| 673 s | CCCCC(=O)Nc1ccc2nc(N3CCN(c4ccc(OC)cc4)CC3)cc(C(=O)O)c2c1 |
| 936 s | CCNc1nn2ccccc2c1/C=C(/C#N)C(=O)OCC |
| 1280 s | CCN(C(=O)c1cccs1)c1nc(-c2ccc(C)cc2)cs1 |
| 867 s | CCc1noc(C2(NC(=O)c3cccc(N(C)C)c3)CCCCC2)n1 |
| 604 s | Cc1cc(=O)n(CC(=O)Nc2cccc(C#N)c2)c(N2CCOCC2)n1 |
| 795 s | O=C1CC(C(F)(F)F)c2c(c(C(=O)O)cn2-c2cccc(Br)c2)N1 (stereo not given) |
| 1090 s | COc1ccc(S(=O)(=O)N2CCc3nc(-c4ccccc4)ncc3C2)cc1Cl |

| RP-LC retention time | Compound |
| --- | --- |
| 573 s | CN(CCNC(=O)c1cccc(N2CCNC(c3ccccc3)C2)n1)C1CCCCC1 (stereo not given) |
| 647 s | NC(=O)c1ccc(-c2nc(-c3ccc4c(c3)OCO4)c(-c3ccccn3)[nH]2)cc1 |
| 1090 s | COc1cccc(-c2nnc(Cc3nc(-c4cccc(Br)c4)no3)o2)c1 |
| 786 s | CCOC(=O)c1ccc(CN2C(=O)CSC2=O)cc1 |
| 648 s | CC(C(=O)NCCCN1CCOCC1)C1CCN(C(=O)c2cc3cc(Cl)ccc3[nH]2)CC1 (stereo not given) |
| 678 s | COc1ccc(NC(=O)NCC(c2cccnc2)c2cn(C)c3ccccc23)cc1 (stereo not given) |
| 755 s | Cc1ccccc1NS(=O)(=O)c1cc(-c2[nH]ncc2C(=O)N2CCCCC2)oc1C |
| 885 s | Cc1ccc(NC(=O)Cn2nc(N3CCCC3)c3ccccc3c2=O)c(F)c1 |
| 963 s | Nc1ccc2c(c1)Cc1cc(Cl)c(Cl)cc1-2 |
| 677 s | CCc1cccc(C)c1NC(=O)Cn1c(CC)nc2c(c1=O)CN(Cc1ccccc1)CC2 |
| 808 s | CSc1ccc(-c2nc3nc(C)cc(C)n3c2Nc2c(C)cccc2C)cc1 |
| 554 s | COCCNC(=O)Cn1c(CO)cnc1SCC(=O)Nc1ccc2c(c1)OCCO2 |
| 592 s | Cc1cc(N2CCN(C)CC2)nc2ccc(NC(=S)N(C)Cc3ccccc3)cc12 |
| 1020 s | Cc1ccc(NC(=O)C2CCN(S(=O)(=O)c3cc(-c4noc(C5CCC5)n4)cs3)CC2)cc1 |
| 934 s | C[C@H](NC(=O)/C(C#N)=C/c1cccc(Br)n1)c1ccccc1 |
| 946 s | COc1ccc(-c2nnc(COc3ccc(NC(=O)C4CCCC4)cc3)o2)cc1 |
| 1090 s | Cc1csc(-c2cc(S(=O)(=O)Nc3cccc(C)c3C)c(C)s2)n1 |
| 762 s | O=C(NCc1ccc(Cl)cc1)C(=O)NCC1CCCO1 (stereo not given) |
| 698 s | COc1ccccc1NC(=O)Nc1ccc2nc3n(c(=O)c2c1)CCC3 |
| 675 s | Cc1oc(-c2ccccc2)nc1Cc1noc(-c2ccccc2F)n1 |
| 645 s | O=C(NCCCN1CCCCC1)c1ccc2ccnc(N3CCN(c4ccc(Cl)cc4)CC3)c2c1 |
| 962 s | Cc1cccc(N2CCN(c3ccc4cc(S(=O)(=O)N5CCCC5)ccc4n3)CC2C)c1 (stereo not given) |
| 866 s | CCOC(=O)c1scc(-c2ccc(C)cc2)c1S(=O)(=O)N1CCN(c2ccccn2)CC1 |

| RP-LC retention time | Compound |
| --- | --- |
| 559 s | O=C(CCCN1C(=O)CSc2ncccc21)N1CCN(c2ccccn2)CC1 |
| 656 s | Cn1c(CNC(=O)C2CCC2)nc2c1CN(C(=O)c1ccc(C(F)(F)F)s1)CC2 |
| 979 s | O=C(CSc1ncccc1-c1noc(C2CCC2)n1)N1CCCCC1 |
| 922 s | COc1ccc(NC(=O)c2c(N3CCCC3=O)c3cc(F)ccc3n2C)cc1 |
| 913 s | COc1ccc(C2CC(=O)c3cnc4c(c3C2)c(=O)n(C)c(=O)n4C)cc1 (stereo not given) |
| 677 s | CCC(C)OC(=O)C1=C(C)NC(=O)NC1c1ccc(O)c(OC)c1 (stereo not given) |
| 627 s | O=C(NC1CCCCCC1)C1CCCN(C(=O)c2cc(-c3ccncc3)n[nH]2)C1 (stereo not given) |
| 1090 s | Cc1nn(C(=O)C(C)(C)C)c(C)c1S(=O)(=O)N1CCOCC1 |
| 562 s | Cc1ccc2cc(CN3CCC4(CC3)CC(O)CCO4)c(=O)[nH]c2c1 (stereo not given) |
| 857 s | CC(=O)Nc1ccc(S(=O)(=O)N2CCn3cccc3C2c2ccc(F)c(F)c2)cc1 (stereo not given) |
| 889 s | O=C(NCc1ccc2c(c1)OCO2)c1c(O)c2cccnc2[nH]c1=O |
| 894 s | Cc1ccc(CNC(=O)C2(C)CCN(C(=O)c3ccccc3C(F)(F)F)CC2)cc1 |
| 626 s | CCCS(=O)(=O)N1CC(n2cc(C(=O)N(C)C)nn2)C1 |
| 615 s | Cc1ccc(CNC(=O)C2CCN(CCc3cn(C)c4ncccc34)CC2)cc1 |
| 666 s | Cc1ccsc1C(=O)Nc1cccn2cnnc12 |
| 1400 s | CCCCOc1ccc(-c2csc(Nc3ccccc3)n2)cc1 |
| 628 s | O=C1COc2cc(S(=O)(=O)N3CCCC3C(=O)N3CCOCC3)c(Cl)cc2N1 (stereo not given) |
| 654 s | CCC(C(=O)NCC(=O)Nc1nc2ccccc2[nH]1)c1ccccc1 (stereo not given) |
| 930 s | CCc1ccc(NC(=O)Cn2c(=O)cc(-c3nc(C)no3)c3ccccc32)cc1 |
| 620 s | O=C(NCCN1CCOCC1)c1ccc(Nc2c(-c3ccc(Cl)cc3)nc3cnccn23)cc1 |
| 1030 s | O=C(Cn1cccc1-c1nc(-c2ccc(Cl)cc2)cs1)NCC1CCCO1 (stereo not given) |
| 828 s | COCCN1C(=O)c2ccccc2C(C(=O)Nc2cccc(C)n2)C12CCCCC2 (stereo not given) |
| 843 s | CC(C)n1cnc(S(=O)(=O)N2CCC(C(=O)Nc3cccc(Br)c3)CC2)c1 |

| RP-LC retention time | Compound |
| --- | --- |
| 594 s | O=C(Cc1cccs1)Nc1ccc2c(N3CCCCC3)ncnc2c1 |
| 664 s | CC(C(=O)NCC1CCCO1)N1C(=O)C2CCCCN2C(=O)c2ccccc21 (stereo not given) |
| 909 s | CCc1cccc(C)c1NC(=O)Cn1c(=O)n(-c2ccc(C)cc2)c(=O)c2c1cc(C)n2C |
| 568 s | O=C(Cc1ccsc1)N1CCC([C@@H]2CNC[C@H]2CO)CC1 |
| 715 s | CC(C)(C)c1noc(-c2ccnc(-n3cnc(C(=O)NCc4ccccc4)c3)c2)n1 |
| 756 s | Cc1ccc(NC(=O)Cc2nnc(-c3cnccn3)o2)cc1Cl |
| 788 s | COC(=O)Nc1ccc(S(=O)(=O)NCc2ccc(C)cc2)cc1 |
| 1050 s | COC(=O)c1cccc(-c2nc(C3CC(=O)N(c4ccc(F)c(Cl)c4)C3)no2)c1 (stereo not given) |
| 681 s | CN(CC1CCOC1)C(=O)c1ccccc1Cl (stereo not given) |
| 793 s | O=C(Cc1cccs1)Nc1cc(F)c2nc(N3CCOCC3)ccc2c1 |
| 752 s | COc1cccc(N2CCN(C(=O)C3CC(=O)N(c4ccc5oc(C)nc5c4)C3)CC2)c1 (stereo not given) |
| 749 s | CNC(=O)C1CN(C(=O)c2cccc(C(F)(F)F)c2)CC12CCCC2 (stereo not given) |
| 853 s | CCOC(=O)c1c(C)[nH]c(CCC(=O)NC(C)c2ccccc2)c1C (stereo not given) |
| 1100 s | CC(C)c1ccc(N2CC(c3nc(-c4ccc5c(c4)OCO5)no3)CC2=O)cc1 (stereo not given) |
| 602 s | CCCN1CCN(C(=O)CN2C(=O)C3CCCCN3c3ccc(C(=O)N(C)C)cc32)CC1 (stereo not given) |
| 786 s | CSC1=C(C#N)C(c2ccco2)C(C(=O)Nc2ccccc2C)=C(C)N1 (stereo not given) |
| 1190 s | Cc1cccc(N2CCN(c3ncc(S(=O)(=O)c4ccc(C)c(C)c4)c(N)n3)CC2)c1 |
| 796 s | Cc1ccc(NC(=O)C2CCN(C(=O)c3ncn4c3COC(c3ccccc3)C4)CC2)cc1C (stereo not given) |
| 703 s | CCn1ccc(C(=O)NCC(=O)N2CCCc3ccccc32)n1 |
| 827 s | Cc1cc(C)n2nc(SCC(=O)Nc3cccc(C(F)(F)F)c3)nc2n1 |
| 758 s | Cn1c(=O)c2nc(S(=O)(=O)CCC(=O)Nc3ccc(F)c(F)c3)n(C)c2n(C)c1=O |
